# Source: patent publication US20230124862A1, “BISMUTH THIOL COMPOUNDS AND COMPOSITIONS AND METHODS OF TREATING MICROBIAL CO-INFECTIONS” (Microbion Corporation, priority 2020, published 2023)
# Like-named read-outs stand apart in the source and are kept apart here. Marks after values point to notes of the source that are not given here.
# How the values were obtained:
# [1] = tested on: Pseudomonas aeruginosa strain PA01; test: Bacterial killing curves with and without CF patient sputum; type: cell-based; settings: for bactericidal activity: 0.1 μg/mL
# Aspergillus spp. = test: Antifungal broth microdilution (Example 13); type: cell-based, A. niger, A. terreus, A. fumigatus, A. flavus; settings: for MEC at 48 hr: complete inhibition (MIC0) not observed
# [2] = tested on: P. aeruginosa and A. baumannii; test: Broth microdilution MIC (Example 11); type: cell-based, Pseudomonas aeruginosa, Acinetobacter baumannii; settings: read-out: MIC values
# S. aureus ATCC 29213 [3] = settings: cited from earlier work; for Expected MIC: goal (acceptable range): control strain ATCC 29213
# Candida krusei = test: Antifungal broth microdilution (Example 13); type: cell-based; settings: for MIC: Pichia kudriavzevii
# S. aureus ATCC 29213 [4] = test: MIC control strain; settings: QC organism, Example 13
# [5] = tested on: MucilAir fully differentiated human airway epithelium
# [6] = humans
# in vivo [7] = settings: rat, rats, lung-deposited dose, read-out: acute no observed adverse effect level (NOAEL)
# Protocol: Based on rat tox and PK data to date, an acute no observed adverse effect level (NOAEL) in rats is approximately 100 μg/kg lung-deposited dose. The NOAEL was established through clinical observation during and after treatment, gross necropsy, lung lavage analysis, clinical chemistry, and hematology results. […] Furthermore, lung surface fluid concentrations are approximately 30-fold higher than the corresponding total lung tissue concentrations for BisEDT which appears to persist primarily on the lumen.
# P. aeruginosa [8] = settings: P. aeruginosa isolate 103; CLSI QC range in parenthesis; cited from earlier work
# Escherichia coli = settings: CLSI established QC range, cited from earlier work
# in vivo [9] = test: in vivo; design: species or system rat; settings: for half-life / concentration at 24 hours / Kp: in vivo
# From the text: . Without being bound by any particular theory, it is believed BisEDT's low solubility provides slow dissolution and long exposure on lung surface fluids with limited systemic exposure via diffusion through lung epithelium. The lung appears to act as a depot for slow systemic exposure with about 10× lower systemic levels than seen in the lung. The terminal phase of the IV data appears to show slow elimination after initial tissue distribution (FIG. 36).
# . The NOAEL was established through clinical observation during and after treatment, gross necropsy, lung lavage analysis, clinical chemistry, and hematology results. […].
# Pseudomonas aeruginosa = settings: P. aeruginosa ATCC 27853; CLSI established QC range; cited from earlier work
# P. aeruginosa [10] = settings: P. aeruginosa isolate 103; CLSI QC range in parenthesis; cited from earlier work; remark: listed apart in the source
# in vivo [11] = test: in vivo; design: species or system F344 rats; settings: both sexes; for concentration at 30 hr: sac time 30 hr
# Protocol: Detailed gross necropsies were performed on all animals (found dead, moribund, or scheduled necropsy) and consisted of a complete external and internal examination including body orifices and cranial, thoracic, and abdominal organs and tissues. All gross findings will be recorded in descriptive terms. […] Lungs collected and weighed.
# [12] = tested on: Gram-positive organisms (S. aureus, S. pneumoniae); settings: cited from earlier work
# Klebsiella pneumoniae = settings: K. pneumoniae ATCC BAA-1705; CLSI established QC range; cited from earlier work
# [13] = rat, 24 hours after single inhalation dose
# [14] = rat, 4 days (96 hrs) after single dose
compound,measurement,setting,value
"CC(S)C(C)S.[Bi] (centres unmarked) [BisBDT, bismuth-2,3-butanedithiol]",bactericidal activity,[1],not bactericidal
same,more surviving in cultures with sputum,"[1]; 4 μg/mL, 3-6 hours",0.5-0.8 log CFU/mL
same,killing without sputum,"[1]; 4 μg/mL, over the 6 hour assay",about 1 log
same,time to sterilization below the limit of detection,"[1]; 20 μg/mL, with and without sputum",≤ 5 h
same,MIC,"Aspergillus spp.; 24 h, A. flavus ATCC 22546, complete inhibition, 24 hr, read-out: MIC0 24 hr",1 µg/mL
same,MIC,"Aspergillus spp.; 24 h, A. flavus ATCC 204304, complete inhibition, 24 hr, read-out: MIC0 24 hr",4 µg/mL
same,MIC,"Aspergillus spp.; 24 h, A. flavus MMX 7935, complete inhibition, 24 hr, read-out: MIC0 24 hr",8 µg/mL
same,MIC,"Aspergillus spp.; 24 h, A. fumigatus ATCC 204305, complete inhibition, 24 hr, read-out: MIC0 24 hr",8 µg/mL
same,MIC,"Aspergillus spp.; 24 h, A. fumigatus ATCC MYA-3626, complete inhibition, 24 hr, read-out: MIC0 24 hr",2 µg/mL
same,MIC,"Aspergillus spp.; 24 h, A. fumigatus MMX 5934, complete inhibition, 24 hr, read-out: MIC0 24 hr",2 µg/mL
same,MIC,"Aspergillus spp.; 24 h, A. fumigatus MMX 5939, complete inhibition, 24 hr, read-out: MIC0 24 hr",2 µg/mL
same,MIC,"Aspergillus spp.; 24 h, A. terreus MMX 8229, complete inhibition, 24 hr, read-out: MIC0 24 hr",0.25 µg/mL
same,MIC,"Aspergillus spp.; 48 h, A. flavus ATCC 22546, complete inhibition, 48 hr, read-out: MIC0 48 hr",2 µg/mL
same,MIC,"Aspergillus spp.; 48 h, A. flavus MMX 7935, complete inhibition, 48 hr, read-out: MIC0 48 hr",8 µg/mL
same,MIC,"Aspergillus spp.; 48 h, A. fumigatus ATCC MYA-3626, complete inhibition, 48 hr, read-out: MIC0 48 hr",4 µg/mL
same,MIC,"Aspergillus spp.; 48 h, A. fumigatus MMX 5939, 48 hr, cell marked footnote b, read-out: MIC0 48 hr",4 µg/mL
same,MIC,"Aspergillus spp.; 48 h, A. terreus MMX 8229, complete inhibition, 48 hr, read-out: MIC0 48 hr",1 µg/mL
same,MEC at 48 hr,"Aspergillus spp.; A. flavus ATCC 204304, 48 hr",4/4^a μg/mL
same,MIC 48 hr,"Aspergillus spp.; A. flavus ATCC 204304, 48 hr, cells marked footnote c (not given; Table 109 gives the 48 hr results as MEC)",4^c
same,MEC at 48 hr,"Aspergillus spp.; A. fumigatus ATCC 204305, 48 hr",4 µg/mL
same,MIC 24 hr,"Aspergillus spp.; A. fumigatus ATCC MYA-3626, 24 hr",2 µg/mL
same,MIC 48 hr,"Aspergillus spp.; A. fumigatus ATCC MYA-3626, 48 hr",4 µg/mL
same,MEC at 48 hr,"Aspergillus spp.; A. fumigatus MMX 5934, 48 hr",4 µg/mL
same,MIC,"Aspergillus spp.; A. niger ATCC 29508, complete inhibition, […], read-out: MIC0 48 hr",2 µg/mL
same,MIC,[2],0.5 to 2 µg/mL
same,Expected MIC: goal (acceptable range),S. aureus ATCC 29213 [3],0.25 (0.12-0.5) mcg/mL
same,MIC 24 hr,"Candida krusei; C. krusei ATCC 6258, first of two values x/y (footnote b not given, matches MIC2 of Table 107)",0.5 µg/mL
same,MIC 24 hr,"Candida krusei; C. krusei ATCC 6258, second of two values x/y (footnote b not given, matches MIC0 of Table 107)",1 µg/mL
same,MIC 48 hr,"Candida krusei; C. krusei ATCC 6258, 48 hr, first of two values x/y (footnote b not given, presumably MIC2)",1 µg/mL
same,MIC,"Candida krusei; C. krusei MMX 7125, Susceptible, 50% inhibition, read-out: MIC2",0.5 µg/mL
same,MIC,"Candida krusei; C. krusei MMX 7125, Susceptible, complete inhibition, read-out: MIC0",1 µg/mL
same,MIC,"Candida krusei; C. krusei MMX 7141, Susceptible, 50% inhibition, read-out: MIC2",1 µg/mL
same,MIC,"Candida krusei; C. krusei MMX 7141, Susceptible, complete inhibition, read-out: MIC0",2 µg/mL
same,MIC,"Candida krusei; C. krusei MMX 7155, Susceptible, 50% inhibition, read-out: MIC2",0.5 µg/mL
same,MIC,"Candida krusei; C. krusei MMX 7155, Susceptible, complete inhibition, read-out: MIC0",1 µg/mL
same,MIC,"Candida krusei; C. krusei MMX 7563, Susceptible, 50% inhibition, read-out: MIC2",0.5 µg/mL
same,MIC,"Candida krusei; C. krusei MMX 7563, Susceptible, complete inhibition, read-out: MIC0",1 µg/mL
same,MIC,"Candida krusei; C. krusei MMX 9878, MICA-I, VORI-I, 50% inhibition, read-out: MIC2",0.5 µg/mL
same,MIC,"Candida krusei; C. krusei MMX 9878, MICA-I, VORI-I, complete inhibition, read-out: MIC0",1 µg/mL
same,MIC,"Candida krusei; […], complete inhibition, read-out: MIC0",1 µg/mL
same,MIC,Candida krusei; read-out: MIC2,0.5 µg/mL
same,MIC 24 hr,S. aureus ATCC 29213 [4],1^a
"C1C[S][Bi]([S]CC[S][Bi]2[S]CC[S]2)[S]1 [BisEDT, Bismuth-1,2-ethanedithiol]",bactericidal activity,[1],not bactericidal
same,LDH release,"[5]; BisEDT in solution 0.001-30 μM, 1, 8, 24, 48 h",not altered
same,LDH release (cytotoxicity),"[5]; solid, 1 μg/cm^2, 8, 24 and 48 h",time- and dose-dependent cytotoxicity
same,LDH release,"[5]; solid, 1 μg/cm^2, 1 hour",No significant effect
same,LDH release,"[5]; solid, 0.033 and 0.33 μg/cm^2, all time points",No significant effect
same,well-tolerated topical concentration,[6]; 6 hours,up to 2500 μg/cm^2
same,tolerated topical concentration,"[6]; over 21 days continuous exposure, normal and abraded skin",up to 75 μg/cm^2
same,NOAEL,in vivo [7],~0.1 mg/kg
same,QC Range 24 hr,"S. aureus ATCC 29213 [3]; S. aureus ATCC 29213, established QC range, 24 hr",0.12-1
same,Expected MIC: goal (acceptable range),S. aureus ATCC 29213 [3],0.25 to 0.5 µg/mL
same,CLSI QC range of MIC,P. aeruginosa [8],(0.5-4) μg/mL
same,QC range of MIC,Escherichia coli; E. coli ATCC 25922,(0.5-4)^1 μg/mL
same,half-life,"in vivo [9]; 100 μg/kg, rat, after IV dosing, read-out: half-life of lung levels (converted)",~24 h
same,half-life,"in vivo [9]; inhaled or intranasal, 100 μg/kg, rat, after inhalation dosing, read-out: half-life in lung tissue (converted)",~96 h
same,concentration at 24 hours,"in vivo [9]; average rat, correlated from lung tissue level, read-out: concentration in lung epithelial lining fluid",150 to 175 µg/mL
same,half-life,"in vivo [9]; rat, longer-term single-dose and repeat-dose studies, read-out: half-life in lung tissue (converted)",96 to 168 h
same,lung surface fluid concentrations higher than total lung tissue concentrations,in vivo [9]; rat,approximately 30 fold
same,tolerability,"in vivo [9]; rat, 100 μg/kg inhalation and IV and 250 μg/kg oral",tolerated
same,equivalent concentration in lung fluid,in vivo [9]; [13],123 µg/mL
same,lung tissue concentration,in vivo [9]; [13],"4,093 ng/g"
same,equivalent concentration in lung fluid,in vivo [9]; [14],78 µg/mL
same,lung tissue concentration,in vivo [9]; [14],"2,600 ng/g"
same,lung levels after IV dosing vs inhalation group,"in vivo [9]; rat, IV",< 5%
same,Kp,"in vivo [9]; rat, rat, repeat dose TK, read-out: lung tissue exposure (AUC) greater than blood exposure",26
same,Kp,"in vivo [9]; rat, rat, read-out: lung fluid exposure (AUC) greater than systemic exposure",> 700
same,concentration at 24 hours,"in vivo [9]; rat, rats, doses near the NOAEL, 24 hours after dosing, read-out: lung tissue level (total wet lung tissue)",~5000 ng/g
same,QC range of MIC,Pseudomonas aeruginosa,(0.5-4) μg/mL
same,CLSI QC range of MIC,P. aeruginosa [10],(0.5-4)^2 μg/mL
same,concentration at 30 hr,"in vivo [11]; F344, in vivo, rat, inhalation, dose 47 μg/kg, read-out: Mean BisEDT Conc, lung at sacrifice",4.8 ng/g
same,concentration at 30 hr,"in vivo [11]; F344, in vivo, rat, inhalation, dose 124 μg/kg, read-out: Mean BisEDT Conc, lung at sacrifice",5.9 ng/g
same,concentration at 30 hr,"in vivo [11]; F344, in vivo, rat, inhalation, dose 400 μg/kg, read-out: Mean BisEDT Conc, lung at sacrifice",12.1 ng/g
same,concentration at 24 hr,"in vivo [11]; F344, in vivo, rat, inhalation, dose 3000 μg/kg, sac time 24 hr, read-out: Mean BisEDT Conc, lung at sacrifice",82.3 ng/g
same,Kp at 24 hours,"in vivo [11]; F344, rat, in vivo, rats, 24 hours after dosing, read-out: lung tissue drug levels higher than blood levels",4 to 5
same,CLSI acceptable MIC QC range,[12]; S. aureus ATCC 29213,(0.12-1) μg/mL
same,CLSI acceptable MIC QC range,[12]; S. pneumoniae ATCC 49619,(0.12-1) μg/mL
C[C@@H](O)[C@H]1C(=O)N2C(C(=O)O)=C(S[C@@H]3CN[C@H](C(=O)N(C)C)C3)[C@H](C)[C@H]12 [MEM],CLSI QC range of MIC,P. aeruginosa [8],(0.12-1) μg/mL
same,QC range of MIC,Klebsiella pneumoniae,(8-64) μg/mL
same,QC range of MIC,Escherichia coli; E. coli ATCC 25922,(0.008-0.06) μg/mL
same,QC range of MIC,Escherichia coli; E. coli ATCC 35218,(0.008-0.06) μg/mL
same,QC range of MIC,Pseudomonas aeruginosa,(0.12-1) μg/mL
same,CLSI QC range of MIC,P. aeruginosa [10],(0.12-1) μg/mL
